Laboratory results taken from patent publication US7214495B2, “Screening method” (Takeda Pharmaceutical Company Limited, priority 2002, dated 2007).
Read-outs that look alike come from different tables or passages of the source.

Legend:
Assay type in all cases: cell-based
[1] = target: T1, Rat GPR40 (Rattus norvegicus, UniProt Q8K3T4); assay: EC50 by FLIPR calcium assay in CHO cells stably expressing rat GPR40
T1 construct: expressed in transfected cells
Experimental: (§1) For determination of EC50 values, the CHO cell lines in which human-, mouse- and rat-derived GPR40 was stably expressed were used. Unless otherwise indicated, these CHO cell lines were incubated in α-MEM medium (Invitrogen) supplemented with 10% fetal calf serum (Invitrogen).
(§2) On the day before assay, the cells incubated to almost confluent stage were rinsed with PBS (Invitrogen), then scraped in 0.05% trypsin-EDTA solution (Invitrogen) and recovered by centrifugal operation. The number of the cells obtained was counted and diluted so as to contain 3×10^5 cells/1 mL of the medium. The dilution was dispensed in a Black welled 96-well plate (Coster) in 100 μL/well, followed by incubation overnight in a CO2 incubator. To the thus prepared CHO cells, various test samples were added and the changes in intracellular calcium level in this case were measured using FLIPR (Molecular Device). In order to determine the changes in the intracellular calcium ion level on FLIPR, the cells were pre-treated by the following procedures.
(§3) First, for the purpose of adding a fluorescent dye Fluo-3 AM (DOJIN) to the cells or washing the cells immediately before the FLIPR assay, an assay buffer was prepared. A solution obtained by adding 20 mL of 1M HEPES (pH 7.4) (DOJIN) to 1000 mL of HBSS (Invitrogen) was prepared (hereinafter HBSS/HEPES solution), to which 10 mL of a solution mixture obtained by dissolving 710 mg of Probenecid (Sigma) in 5 mL of 1N NaOH and further adding 5 mL of HBSS/HEPES solution was added. The resulting solution was used as the assay buffer. Next, 50 μg of Fluo-3AM was dissolved in 21 μL of DMSO (Wako) and an equal volume of 20% Pulronic acid (Molecular Probes) was added to and mixed with the solution. The mixture was then added to 10.6 mL of the assay buffer supplemented with 105 μL of fetal calf serum to prepare a fluorescent dye solution. […], the medium for the CHO cells again plated in a Black welled 96-well plate was removed. Immediately thereafter, the fluorescent dye solution was dispensed in 100 μL each/well and the cells were incubated in a CO2 incubator for an hour so that the fluorescent dye was taken up into the cells. The cells after the incubation was washed with the assay buffer described above and set on FLIPR. […] After the pre-treatment above was made, the changes in intracellular calcium level after the addition of various test samples were measured on FLIPR.

[2] = target: T2, human GPR40 (Homo sapiens, UniProt O14842); assay: EC50 by FLIPR calcium assay in CHO cells stably expressing human GPR40
T2 construct: The resulting fragment (ca. 1 kb) was introduced into vector pAKKO-111, which was used for transfection of CHO cells; expressed in transfected cells
Experimental: as §1, §2, §3

[3] = target: T3, Mouse GPR40 (Mus musculus, UniProt Q76JU9); assay: EC50 by FLIPR calcium assay in CHO cells stably expressing mouse GPR40
T3 construct: expressed in transfected cells
Experimental: as §1, §2, §3

[4] = tested on: mouse pancreatic β cell line MIN6; assay: Insulin secretion from MIN6 in KRBH buffer (immunoassay); conditions: 22 mM glucose KRBH, 90 minutes
Experimental: The mouse pancreatic β cell line MIN6 incubated in a flask was scraped in PBS containing 2.5 mM EDTA and plated in a 96-well plate followed by incubation for 2 days. The medium used was the same as in EXAMPLE 24, namely, 4.5 g/l of glucose-containing Dulbecco's Modified Eagle Medium (DMEM, Invitrogen, Inc.) supplemented with 15% fetal calf serum (ThermoTrace, Inc.), 5.5 μM 2-mercaptethanol (Invitrogen, Inc.), 20 mM HEPES pH 7.3, 100 U/ml penicillin and 100 μg/ml streptomycin. The cells were washed twice with modified Krebs-Ringer bicarbonate buffer (KRBH, 116 mM NaCl, 4.7 mM KCl, 1.2 mM KH2PO4, 1.2 mM MgSO4, 2.5 mM CaCl2, 25 mM NaHCO3, 24 mM HEPES, pH 7.3), followed by preincubation at 37° C. in 5% CO2 for 30 minutes. The fatty acid diluted/prepared using the aforesaid KRBH buffer added with 22 mM glucose was added to the cells after the preincubation, followed by incubation under the conditions of 37° C. in 5% CO2 for 90 minutes. After the incubation, the supernatant of the cells was recovered and stored in a frozen state. The insulin content in the supernatant was assayed using an insulin immunoassay kit commercially available (Amersham Pharmacia, Inc.).
Based on the method of EXAMPLE 25, effects of glucose level when added with fatty acids were examined. The level of glucose, which was added to KRBH upon the addition of fatty acids, was varied to 0, 5.5, 11 and 22 mM to study the effects.
The insulin secretion enhancing activity in the m40i103-introduced MIN6 cells using HVJ Envelope VECTOR KIT GenomONE based on the method of EXAMPLE 18 was examined. The insulin secretion enhancing activity by fatty acids was examined according to the method of EXAMPLE 25.
Based on the procedures of EXAMPLE 25, an essential prerequisite of Ca^2+ ions in the extracellular fluid was examined. In preincubation and incubation with a sample, Ca^2+ ions were removed and 0.1 mM EGTA, which was a reagent for chelating Ca^2+ ions, was further added, and then the insulin secretion enhancing activity by fatty acids was examined in this case.
Based on the method of EXAMPLE 25, effects of Ca^2+ channel blocker (Nifedipine) and MAP kinase inhibitor (PD98059) were examined. In preincubation and incubation with a sample, the insulin secretion enhancing activity by fatty acids was examined when Nifedipine (10 μM) or PD98059 (50 μM) was added.
It is known that fatty acids have the property of binding to albumin. Based on the method of EXAMPLE 25, effects were examined when bovine serum albumin (BSA) was present. In preincubation and incubation with a sample, the insulin secretion activity by fatty acids was examined when 0.1% BSA was added to the buffer.

[5] = intracellular calcium, FLIPR, stable CHO line
[6] = intracellular calcium, FLIPR, stable CHO line, read-out: EC50 Rat GPR40
[7] = intracellular calcium, FLIPR, stable CHO line, read-out: EC50 Human GPR40
[8] = intracellular calcium, FLIPR, stable CHO line, read-out: EC50 Mouse GPR40

T1 sequence (Q8K3T4 whole entry): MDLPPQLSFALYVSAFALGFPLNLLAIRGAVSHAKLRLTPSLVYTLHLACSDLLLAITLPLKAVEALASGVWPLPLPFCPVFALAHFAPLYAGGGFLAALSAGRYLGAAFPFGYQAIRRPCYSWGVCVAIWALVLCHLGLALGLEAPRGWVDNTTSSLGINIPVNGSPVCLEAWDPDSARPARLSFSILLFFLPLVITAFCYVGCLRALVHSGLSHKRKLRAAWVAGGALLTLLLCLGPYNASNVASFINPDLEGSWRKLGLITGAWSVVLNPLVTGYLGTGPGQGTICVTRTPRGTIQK
T2 sequence (O14842 whole entry, the tested form may be a part): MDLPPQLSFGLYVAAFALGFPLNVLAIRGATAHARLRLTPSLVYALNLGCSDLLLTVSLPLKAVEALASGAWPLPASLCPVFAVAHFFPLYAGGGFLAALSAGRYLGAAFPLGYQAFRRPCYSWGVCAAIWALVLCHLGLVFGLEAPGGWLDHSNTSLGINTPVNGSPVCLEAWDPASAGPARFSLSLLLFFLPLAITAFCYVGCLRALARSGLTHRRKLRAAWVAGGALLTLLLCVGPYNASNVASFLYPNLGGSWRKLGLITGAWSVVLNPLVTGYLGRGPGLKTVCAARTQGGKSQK
T3 sequence (Q76JU9 whole entry): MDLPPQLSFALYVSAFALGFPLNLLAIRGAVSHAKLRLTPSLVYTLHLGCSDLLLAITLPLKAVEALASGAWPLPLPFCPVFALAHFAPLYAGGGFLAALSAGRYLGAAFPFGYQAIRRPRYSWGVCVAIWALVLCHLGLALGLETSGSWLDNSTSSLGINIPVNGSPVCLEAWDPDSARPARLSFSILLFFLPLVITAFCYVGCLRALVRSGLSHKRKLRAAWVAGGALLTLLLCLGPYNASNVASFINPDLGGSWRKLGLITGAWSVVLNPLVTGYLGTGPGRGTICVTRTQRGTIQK

Question: How did the “EC50 Rat GPR40” value [1, 5] turn out when CC(=O)O [Acetic acid (C2), Acetic acid] was run?
Answer: inactive

Question: What about the “EC50 Human GPR40” value [2, 5] of the same compound?
Answer: inactive

Question: What about the “EC50 Mouse GPR40” value [3, 5] of the same compound?
Answer: inactive

Question: Which EC50 [1, 6] does the source give for CCCCCCCCCC(=O)O [Capric acid (C10), Capric acid] here?
Answer: > 100 µM

Question: What about the EC50 [2, 7] of the same compound?
Answer: 43 ± 2.2 µM

Question: What about the EC50 [3, 8] of the same compound?
Answer: > 100 µM

Question: Which results are given for CCCCCC(=O)O [Caproic acid (C6), Caproic acid]?
Answer: EC50 [1, 6]: > 300 µM; EC50 Human GPR40 [2, 5]: inactive; EC50 Mouse GPR40 [3, 5]: inactive

Question: For CCCCCCCC(=O)O [Caprylic acid (C8), Caprylic acid], which EC50 [1, 6] is on record?
Answer: > 300 µM

Question: And the EC50 [2, 7]?
Answer: > 300 µM

Question: And the “EC50 Mouse GPR40” value [3, 5]?
Answer: inactive

Question: For CC/C=C\C/C=C\C/C=C\C/C=C\C/C=C\CCCC(=O)O [Eicosapentaenoic acid (C20:5), Eicosapentaenoic acid], which EC50 [1, 6] is on record?
Answer: 9.8 ± 0.6 µM

Question: And the EC50 [2, 7]?
Answer: 2.3 ± 0.4 µM

Question: What about the EC50 [3, 8] of the same compound?
Answer: 4.9 ± 0.8 µM

Question: Which EC50 [1, 6] does the source give for CCCCCCCC/C=C/CCCCCCCC(=O)O [Elaidic acid (C18:1), Elaidic acid] here?
Answer: 11 ± 1.5 µM

Question: And the EC50 [2, 7]?
Answer: 4.7 ± 0.4 µM

Question: What about the EC50 [3, 8] of the same compound?
Answer: 6.5 ± 1.5 µM

Question: For CCCCCCCCCCCCCC(=O)O [Myristic acid (C14), Myristic acid], which EC50 [3, 8] is on record?
Answer: 6 ± 0.8 µM

Question: For CCCCCCCCCCCCCCCCCC(=O)O [Stearic acid (C18), Stearic acid], which EC50 [1, 6] is on record?
Answer: > 300 µM

Question: And the EC50 [2, 7]?
Answer: > 300 µM

Question: What about the EC50 [3, 8] of the same compound?
Answer: > 300 µM

Question: Which EC50 [1] does the source give for CC/C=C\C/C=C\C/C=C\CCCCCCCC(=O)O [α-Linolenic acid (C18:3), α-Linolenic acid] here?
Answer: 4 ± 0.7 µM

Question: What about the EC50 [2] of the same compound?
Answer: 2 ± 0.3 µM

Question: And the EC50 [3]?
Answer: 3.6 ± 0.3 µM

Question: And the “insulin secretion enhancing activity” value [4]?
Answer: significantly noted
